In publication PMC8229129, “Local Colonic Administration of a Serine Protease Inhibitor Improves Post-Inflammatory Visceral Hypersensitivity in Rats” (Pharmaceutics, 2021):

How the values were obtained:
[1] = test system: elastase-like, cathepsin G and kallikrein activities in colonic tissue; assay: Other specific proteolytic activities in colonic tissue of post-colitis rats after intracolonic administration; format: in vivo, Sprague–Dawley rats; settings: 5 mg/kg intracolonic, 90 min
Procedure: The serine protease inhibitor UAMC-00050 (0.1–1.0–2.5–5.0 mg/kg, dissolved in a volume of 200 µL) or its vehicle (5% DMSO in H2O) was delivered colonically using a flexible catheter (18 G, length 4.5 cm) under short-lasting isoflurane anesthesia (5.0% induction, 1.5% maintenance). To prevent expulsion of the enema, animals were held in a Trendelenburg position for 90 s. Doses for intracolonic administration were based on the doses known to be effective via an i.p. administration and adapted afterwards based on preliminary results.
Trypsin-like, chymotrypsin-like, cathepsin G, elastase-like, and kallikrein activities were determined in colon tissue and fecal samples to profile serine protease activity. […]
Boc-Gln-Ala-Arg-AMC (75 µM) and n-Tosyl-Gly-Pro-Arg-AMC (100 µM) in 50 mM Tris-HCl pH 8.0 containing 120 mM NaCl were used to measure the trypsin-like activity. […] The fluorescence was measured during 20 min at 37 °C on a Tecan Infinite F200 Pro microtiter plate reader. The other activities were assessed in a similar assay, using the substrates mentioned below. Chymotrypsin-like and kallikrein activity were measured with Suc-Ala-Ala-Pro-Phe-AMC (0.45 mM) and H-Pro-Phe-Arg-AMC (0.45 mM), respectively. Elastase-like activity was measured using two assays, one using Suc-Ala-Ala-Pro-Val-AMC as a substrate and the other using Suc-Ala-Ala-Ala-AMC (both 0.45 mM). […]

inflammatory parameters = test system: inflammatory parameters; design: method as in PMID 29911328; settings: post-inflammatory model, intraperitoneal treatment; cited from earlier work
cathepsin G = test system: cathepsin G; design: method as in PMID 29911328; settings: in vitro; cited from earlier work

CC(=O)Nc1ccc(OP(=O)(Oc2ccc(NC(C)=O)cc2)C(Cc2ccc(N=C(N)N)cc2)NC(=O)OCc2ccccc2)cc1.Cl (stereo not drawn) [UAMC-00050]
Effect on the other specific proteolytic activities (elastase-like, cathepsin G, kallikrein) in colonic tissue [1]: No effect
Effects on inflammatory parameters (inflammatory parameters): no effects
inhibition of cathepsin G (cathepsin G): efficiently inhibits
